The structures appear in SMILES notation. Entries after “also recorded” stand apart in the source; their conditions may differ.

In series [1] the test system is EKP induced seizures in zebrafish larvae. Nature of the series: Zebrafish drug resistant epilepsy model: ethyl ketopentenoate (EKP), locomotor tracking. The format is in vivo. The following applies: for activity after EKP exposure (locomotor activity relative to EKP only): 1 μM compound, 300 μM EKP, 30 min recording; for effect on EKP induced seizures (locomotor activity, actinteg units): 7 dpf larvae, compound at MTC (CQ 3 μM, CH 3.125 μM, PBT-1033 6 μM) 2 h before 300 μM EKP. As to the method: Larvae (7 dpf) in 100 μl VHC were arrayed individually in a 96-well plate (tissue culture plate, at bottom, Falcon, USA) and kept in the light at 28° C. Two-hours before tracking compound (clioquinol (CQ), chloroxine (CH), PBT-1033) and/or inhibitor (disulfiram (DS), CBR) was added at their MTC to the larvae and afterwards the 96-well plates were placed in darkness at 28° C. for 2 hours. Just prior to tracking 100 µl of VHC or EKP stock solution was added to each well to obtain a EKP concentration of 300 μM. The plates were placed in an automated video tracking device (ZebraBox™ apparatus; Viewpoint, Lyon, France) and the locomotor behavior of the larvae was monitored for 40 min in the dark at 28° C. Locomotor activity was quantified using ZebraLab™ software (Viewpoint, Lyon, France) and expressed in “actinteg” units per 5-min interval. For each larvae, 30 min of tracking data after the effect of EKP was initiated was used. The actinteg value is defined as the sum of all image pixel changes detected during the time window.
Locomotor activity was quantified using ZebraLab™ software (Viewpoint, Lyon, France) and expressed in mean “actinteg” units per 5-min+/−SEM during a 30 min recording interval relative to EKP only. Statistical analysis: one-way ANOVA with Dunnett's multiple comparison test. A statistical difference is indicated by: ****p<0.0001. For each condition n=10 larvae were used and the experiment was performed two times (n total=20 per condition).

In series [2] the target is T1, human Phgdh (Homo sapiens, UniProt O43175).
T1 construct: purchased BPS bioscience 71079
T1 sequence (O43175 1-533): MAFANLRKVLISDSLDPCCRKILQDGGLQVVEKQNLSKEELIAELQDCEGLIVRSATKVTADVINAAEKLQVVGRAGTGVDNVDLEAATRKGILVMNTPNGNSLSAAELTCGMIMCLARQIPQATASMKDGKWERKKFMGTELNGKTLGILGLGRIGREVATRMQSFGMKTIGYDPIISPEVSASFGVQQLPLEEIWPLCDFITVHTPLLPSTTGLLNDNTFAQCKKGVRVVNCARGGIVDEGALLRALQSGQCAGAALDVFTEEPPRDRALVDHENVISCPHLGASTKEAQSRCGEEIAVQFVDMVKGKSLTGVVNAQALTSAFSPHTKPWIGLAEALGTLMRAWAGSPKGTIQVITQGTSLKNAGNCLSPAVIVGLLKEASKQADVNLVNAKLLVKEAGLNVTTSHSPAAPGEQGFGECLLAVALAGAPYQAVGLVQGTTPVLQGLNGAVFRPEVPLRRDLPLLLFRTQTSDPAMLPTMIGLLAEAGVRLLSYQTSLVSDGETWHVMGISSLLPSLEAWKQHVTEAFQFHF
Nature of the series: Phgdh activity assay (colorimetric kit, NADH at 450 nm). Type of series: biochemical. The following applies: for Phgdh activation (in words): 25 μM compound. As to the method: Phgdh enzyme activity upon drug treatment was tested using human Phgdh (BPS bioscience, 71079) and a specific colorimetric Phgdh activity kit (Biovision, K569). The Phgdh inhibitor Disulfiram [Spillier et al. (2019) Sci Rep. 9, 4737], served as […].
Briefly, Human Phgdh enzyme was diluted in assay buffer at a concentration of 0.38 mg/mL. Next, 5 μl of this Phgdh enzyme solution and 5 μL of the compounds in 5% DMSO and assay buffer was added (to wells of flat bottom 96-well plate). Subsequently, 40 μl Phgdh assay buffer (Biovision) and 50 μl Phgdh reaction mix (prepared as described in the protocol of the Phgdh assay kit K569, Biovision) was added. The final amount of enzyme per reaction was 0.35 μM. Afterwards, absorbance at 450 nm, indicative for the amount of NADH generated, was measured over time. NADH is one of the end products of the reaction. In between measurements, the plate was incubated at 37° C., protected from light.

Series [3] relates to Scn1Lab mutant larvae. Nature of the series: Zebrafish model of Dravet syndrome, locomotor behavioural assay. The settings on record: 6 dpf larvae, MTC concentration in 0.1% DMSO, 2 h incubation, normalized to VHC-treated mutants. The format is in vivo. The method, then:
6 dpf Scn1Lab mutant larvae (selected by their darker appearance, lack of a swim bladder and slight curvature of the body on 6 dpf) and WT larvae were arrayed in a 96-well plate (one larva per well) and treated with 100 μl VHC (0.1% DMSO) or compound (MTC concentration in 0.1% DMSO). After incubation at 28° C. on a 14/10 h light/dark cycle for 2 h, the plates were immediately placed in an enclosed tracking device (ZebraBox Viewpoint, France) and chamber habituation for 30 min. The locomotor activity of the larvae were evaluated during 10 min under dark conditions and quantified by the lardist parameter (total distance in large movements) and plotted in cm (ZebraLab™ software, Viewpoint, Lyon, France). Data was collected from 3-4 larvae per treatment condition. The locomotor data were analysed by normalizing the locomotor activity of treated larvae against VHC-treated Scn1Lab mutant larvae.

The conditions of series [4]: cited from earlier work.
The conditions of series [5]: cited from earlier work. This is another data set of the same source.
For series [6] the following is noted: cited from earlier work. The source holds these as a separate data set.
Series [7] concerns 6-Hz (44 mA) psychomotor seizures in NMRI mice. The series is described as follows: Mouse 6-Hz (44 mA) psychomotor seizure model. The format is in vivo. The settings on record: i.p. injection 60 min before corneal stimulation. As to the method:
Male NMRI mice (weight 25-30 g) were acquired from Charles River Laboratories (France) and housed in polyacrylic cages under a 14/10-hour light/dark cycle at 21° C. The animals were fed a pellet diet and water ad libitum, and were allowed to acclimate for 1 week before experimental procedures were conducted. Prior to the experiment, mice were isolated in polyacrylic cages with a pellet diet and water ad libitum for habituation overnight in the experimental room, to minimize stress. The antiseizure activity of compounds was investigated in the mouse 6-Hz (44 mA) psychomotor seizure model as described before [Copmans et al (2018) ACS Chem Neurosci. 9, 1652-1662.]. In brief, 500 μl (injection volume was adjusted to the individual weight) of VHC (0.5% sodiumcarboxymethylcellulose (NaCMC)/Tween80 in 0.9% NaCl) or treatment (valproate or clioquinol dissolved in VHC) was i.p. injected in NMRI mice and after 60 min psychomotor seizures were induced by corneal electrical stimulation (6 Hz, 0.2 ms rectangular pulse width, 3 s duration, 44 mA) using an ECT Unit 5780 (Ugo Basile, Comerio, Italy). Seizure durations were measured during the experiment by experienced researchers, familiar with the different seizure behaviours. In addition, seizure durations were determined by blinded video analysis to confirm or correct the initial observations. Data are expressed as mean±SD.

Series [8] has as its system cAMP-transporting ABC pumps. The settings on record: possible targets ABCC4 and ABCC11; cited from earlier work.

Consider `O=C(O)c1cc(O)c2ccc(Cl)cc2n1` [7-chloro-kynurenic acid], for which the “activity after EKP exposure (locomotor activity relative to EKP only)” value in series [1] is “not Active”. In series [2], the “Phgdh activation (in words)” value is given as “could not activate Phgdh; also recorded: no induced activation of PHGDH”.

As to `O=C(Oc1cccc2cccnc12)c1ccccc1` [benzoxyquine], the “Phgdh activation (in words)” value in series [2] is “could not activate Phgdh”.

With `Oc1c(Cl)cc(Cl)c2cccnc12` [chloroxine], the “effect on EKP induced seizures (locomotor activity, actinteg units)” value in series [1] is listed as “significantly reduced EKP induced seizures”. For the same molecule, the “reduction of epileptiform locomotor activity of Scn1Lab mutant group” value in series [3] is recorded as above 60%.

Turning to `Oc1c(I)cc(Cl)c2cccnc12` [clioquinol], in series [1], the “activity after EKP exposure (locomotor activity relative to EKP only)” value is given as “superior activity” and the “effect on EKP induced seizures (locomotor activity, actinteg units)” value is recorded as “significantly reduced EKP induced seizures”. Also, the “dose with no apparent adverse effects” value in series [4] (Alzheimer clinical trial, for weeks (10 mg/kg/day)) is recorded as 750 mg/day. Further, the “dose with dose-limiting neurotoxicity and abdominal pain” value in series [4] (humans (42.5 mg/kg/day)) is on record as 3200 mg/day. In addition, the “dose received by patients without toxicity” value in series [4] (humans, per day (~50 mg/(kg day))) was 3.5 g. Also, the “dose that did not produce toxicity in animals” value in series [5] (animals, over 30 days, in all but one study) was 100 mg/(kg day). The “dose with toxicity observed in a week” value in series [5] (dogs, in a week) is 400 mg/(kg day). In series [5] (dogs, treated for over a month), the “dose with neurological toxicity in dogs” value is reported as “exceeding 200 mg/(kg day)”. Also, the “dose/concentration ratio in humans” value in series [6] (doses of 250 or 500 mg) is reported as 0.64-1.4. For the same molecule, the “concentrations of free clioquinol in humans relative to hamsters (mean)” value in series [6] (in vivo) was 33 times. For the same molecule, in series [7], the seizure duration result is “trend towards reduced seizure duration”. Besides, the “effect on cAMP-transporting ABC pumps” value in series [8] was “inhibits”. Also, in series [2] (compound itself, data not shown), the “effect on the oxido-reduction reaction toward NADH generation” value was “does not affect”.

For the molecule `Oc1ccc(Cl)c2cccnc12` [cloxyquin, 5-Chloro-8-quinolinol], the “Phgdh activation (in words)” value in series [2] was “activity comparable to clioquinol”.

Source of the values: US20230103644A1, “TREATMENT OF EPILEPSY” (Katholieke Universiteit Leuven, priority 2020, published 2023).
